Values after ≈ are worked out from the molar mass of the structure shown. Where two headings read alike, the source gives them in different places. Where only a bound is given, the exact number is not on record here.

The values that follow come from patent US6294526A, “Use of flavone derivatives for induction of β-lactam-sensitivity of MRSA” (priority 1998, dated 2001).

In assay [1] the test system is MRSA. The experiment in a line: antibacterial activity of antibiotics alone and in the presence of apigenin (4 μg/ml), MRSA. The settings on record: Staphylococcus aureus, MRSA, 20 h, MRSA. It counts as cell-based, methicillin-resistant Staphylococcus aureus. How it is done:
(§1) The screening of the present invention may be carried out according to the agar plate dilution method designated by the Japan Society of Chemotherapy (Chemotherapy 29(1), 76-79 (1981)). Mueller-Hinton agar base semi-synthetic medium may be used for a plate culture medium for a sensitivity test together with an inoculating bacteria solution which may be prepared by culturing bacteria to be tested at 37° C. for 20 hours diluted with 8.5% by isotonic sodium chloride solution to 10^6 CFU/ml. Diluted β-lactam solutions are prepared by two times serial dilution. 1 ml of the diluted β-lactam solution and 1 ml of a predetermined concentration of a sample to be tested are added to 8 ml of the plate culture medium for a sensitivity test. To the resultant plate culture medium for sensitivity test, the bacteria are inoculated using a microplanter (SAKUMASEISAKUSYO Co.), cultured for 20 hours at 37° C. followed by assessing for a minimum inhibition concentration (MIC).
(D) Then use of 4 μg/ml of apigenin and other antibiotics at the same time was studied. The antibiotics are penicillin , ampicillin, cephalothin, cefoxitin, cefuroxime, cefotaxime, vancomycin, streptomycin, chloramphenicol, kanamycin, erythromycin, nalixic acid and tetracycline.

Another assay concerns MRSA No. 5. The experiment in a line: effect of flavone on antibacterial activity of antibiotics against MRSA No. 5 in bouillon (broth microdilution). The settings on record: for MIC: Staphylococcus aureus, MRSA, 20 h; for inhibitory effect on resistance of MRSA No.5 (in words): in the presence of flavone 0.5 mM. In kind it is cell-based, methicillin-resistant Staphylococcus aureus. The procedure: Alternatively, the screening of the present invention may be carried out according to the broth microdilution method designated by the Japan Society of Chemotherapy (Chemotherapy 38(1), 102-105 (1990)). Muellar-Hinton broth is used as a culture medium for the sensitivity test, and 50 mg/ml of calcium(Ca) ion, 25 mg/ml of magnesium(Mg) ion, and 2% sodium chloride (NaCl) are added thereto. An inoculating bacteria solution may be prepared by culturing bacteria to be tested in Mueller-Hinton broth at 37° C. for 20 hours and diluting with Mueller-Hinton broth to 10^5 CFU/ml final concentration of inoculating bacteria. Diluted β-lactam solution is prepared by two times serial dilution series. 10 μl of the diluted β-lactam solution and 10 μl of a predetermined concentration of a sample of bacteria to be tested are added to mix with 80 μl of the culture medium for the sensitivity test. To the resultant plate culture medium for sensitivity test, the inoculating bacteria are added and culturing is carried out for 20 hours at 37° C. and then assessment for a minimum inhibition concentration (MIC) is carried out. A minimum inhibition concentration means the minimum concentration of β-lactam at which growth of bacteria is not recognized by the naked eye.
(G) Antibacterial activity of 6 β-lactams, that is, cephalothin, cefuroxime, cefotaxime, cefoxitin, streptomycin and vancomycin, against MRSA in the presence of 0.5 mM flavone was studied in bouillon.
Muellar-Hinton broth was used as a culture medium for the sensitivity test, and 50 mg/ml of calcium (Ca) ion, 25 mg/ml of maqnesium (Mg) ion, 2% sodium chloride (NaCl) were added thereto. An inoculating bacteria solution was prepared by culturing bacteria to be tested with Mueller-Hinton broth at 37° C. for 20 hours and diluting with Mueller-Hinton broth to 10^5 CFU/ml final concentration of inoculating bacteria. Diluted β-lactam solutions were prepared in two times serial dilutions starting from 10 mM. Ten microliters of the diluted β-lactam solution and 10 μl of 5 mM of flavone were mixed with 80 μl of the culture medium for the sensitivity test in a microplate having U-shaped wells and samples of bacteria to be tested were added thereto. The mixture was cultured 20 hours at 37° C. and then assessed for minimum inhibition concentration (MIC). Minimum inhibition concentration means minimum concentration of a β-lactum at which growth of bacteria is inhibited to the extent that bacteria is not recognized by the naked eye.
Background: In broth dilution the organism is exposed to a series of concentrations in liquid medium.

In assay [2] the test system is MRSA. The experiment in a line: antibacterial activity (MIC) by agar plate dilution method, MRSA strains. In kind it is cell-based, methicillin-resistant Staphylococcus aureus. The settings on record: Staphylococcus aureus, 20 h, MRSA (20 strains); for MIC50: read-out: MIC50. How it is done: as §1
(§2) (A) Antibacterial activities of ether extract from Scutellaria barbata, SB-1 (isolated from Scutellaria barbata), apigenin (authentic sample) and luteolin (authentic sample) were shown in Table 1.
(§3) Flavones were dissolved in methanol and the others were dissolved in 0.1 N NaOH. A method for determination of antibacterial activity is, as described above, an agar plate dilution method designated by the Japan Society of Chemotherapy (Chemotherapy 29(1), 76-79 (1981)) to determine MIC value. MIC80 is a concentration at which a strain is prohibited to proliferate by 80% and MIC50 is a concentration at which a strain is prohibited to proliferate by 50%.

A further assay has as its system MSSA. The experiment in a line: antibacterial activity (MIC) by agar plate dilution method, MSSA strains. In kind it is cell-based, Methicillin-sensitive Staphylooccus aureus. The settings on record: Staphylococcus aureus, 20 h, MSSA (7 strains); for MIC50: read-out: MIC50. The procedure: as §1, §2, §3
The subject of another assay is MRSA and MSSA. The experiment in a line: antibacterial activity (MIC) by agar plate dilution method, MRSA and MSSA strains together. It counts as cell-based, Staphylococcus aureus. The settings on record: MRSA and MSSA; for antibacterial activity (in words): Table 2; for MIC: Staphylococcus aureus, 20 h, "in each case", read-out: MIC values (text summary of Table 2). The procedure: as §1, with “(MIC). […]” for “(MIC).”
Antibacterial activity is determined for flavones including flavone, flavonol, flavanone, isoflavone, catechin and calchone, as follows:
as §3

[3] abbreviates: antibiotic with Apigenin (4 μg/ml).
[4] abbreviates: Concentration of flavone 0.5 mM.

Usually MIC50 stands for an inhibitory concentration at the 50% level, which refers to growth in some studies and to a panel of isolates in others. As a reminder, the MIC is the smallest concentration in the dilution series that meets the test's criterion for growth inhibition. Turning to `CO/N=C(\C(=O)N[C@@H]1C(=O)N2C(C(=O)O)=C(COC(N)=O)CS[C@H]12)c1ccco1` [Cefuroxime, cefuroxime], the MIC50 in the assay on MRSA [1] (Antibiotics alone, read-out: MIC50) is more than 250 µg/mL; with MRSA [1] (antibiotic with Apigenin (4 μg/ml), read-out: MIC50) it was more than 250 µg/mL. The MIC with MRSA No. 5 (Concentration of flavone 0 mM, read-out: MIC) was more than 1000 µM; with MRSA No. 5 (Concentration of flavone 0.5 mM, read-out: MIC), 7.8 µM (≈ 3.31 µg/mL). Moreover, in the assay on MRSA No. 5, the “inhibitory effect on resistance of MRSA No.5 (in words)” value was “showed inhibitory effect on resistance of MRSA No.5”.

As to `CC(=O)OCC1=C(C(=O)O)N2C(=O)[C@@H](NC(=O)Cc3cccs3)[C@H]2SC1` [Cephalothin, cephalothin], the minimum inhibitory concentration (MIC) is 0.98 to 250 µg/mL in the assay with MRSA [1] (Antibiotics alone), 0.98 to 250 µg/mL in the assay on MRSA [1] (setting [3]), 500 µM (≈ 198 µg/mL) in the assay with MRSA No. 5 (Concentration of flavone 0 mM) and 1.95 µM (≈ 0.773 µg/mL) with MRSA No. 5 (setting [4]). In addition, the MIC50 in the assay with MRSA [1] (Antibiotics alone) and in the assay on MRSA [1] (setting [3]) was 125 µg/mL in each case. For the same compound, in the assay on MRSA No. 5, the “inhibitory effect on resistance of MRSA No.5 (in words)” value is reported as “showed inhibitory effect on resistance of MRSA No.5”.

As to `O=C1C[C@@H](c2ccc(O)c(O)c2)Oc2cc(O)cc(O)c21` [Eriodictyol, eriodictyol], the MIC50 in the assay on MRSA [2] and in the assay with MSSA was 250 µg/mL (≈ 867 µM) each time. Moreover, the MIC came to 250 µg/mL (≈ 867 µM) in the assay with MRSA [2] (MRSA, range over strains, read-out: MIC); 250 µg/mL (≈ 867 µM) in the assay with MSSA (MSSA, range over strains, read-out: MIC); 250 µg/mL (≈ 867 µM) with MRSA and MSSA. In addition, in the assay on MRSA and MSSA, the “antibacterial activity (in words)” value is “showed antibacterial activity”.

On to `O=c1c(O)c(-c2ccc(O)cc2)oc2cc(O)cc(O)c12` [Kaempferol, kaempferol], for which the MIC50 with MRSA [2] and in the assay on MSSA was 250 µg/mL (≈ 873 µM) each time. For the same compound, the “antibacterial activity (in words)” value was “showed antibacterial activity” in the assay with MRSA and MSSA; “showed activity” with MRSA and MSSA (listed as kaemferol). The minimal inhibitory concentration (MIC) in the assay with MRSA and MSSA amounted to 250 µg/mL (≈ 873 µM).

In the case of `Cc1onc(-c2ccccc2)c1C(=O)N[C@@H]1C(=O)N2[C@@H]1SC(C)(C)[C@@H]2C(=O)O` [Oxacillin, oxacillin], the MIC50 in the assay on MRSA [1] (Antibiotics alone) and in the assay on MRSA [1] (setting [3]) was 250 µg/mL in each case. Moreover, the results for the minimum inhibitory concentration (MIC) against MRSA No. 5 (Concentration of flavone 0 mM) and against MRSA No. 5 (setting [4]) were 1000 µM (≈ 401 µg/mL) and 15.6 µM (≈ 6.26 µg/mL), respectively.

On to `[H]/N=C(/N)N[C@H]1[C@H](O)[C@@H](O)[C@H](O[C@@H]2O[C@@H](C)[C@](O)(C=O)[C@H]2O[C@@H]2O[C@@H](CO)[C@H](O)[C@@H](O)[C@@H]2NC)[C@@H](N/C(N)=N\[H])[C@@H]1O` [Streptomycin, streptomycin], for which the MIC in the assay with MRSA [1] (Antibiotics alone) is 7.8 to 15.6 µg/mL; with MRSA [1] (setting [3]), 2 to 15.6 µg/mL; against MRSA No. 5 (setting [4]), less than 0.98 µM. The MIC50 in the assay on MRSA [1] (Antibiotics alone) was determined as 7.8 µg/mL; with MRSA [1] (setting [3]), 7.6 µg/mL. Moreover, the “inhibitory effect on resistance of MRSA No.5 (in words)” value in the assay with MRSA No. 5 was “appeared not to be showed”.

Regarding `CN[C@H](CC(C)C)C(=O)N[C@H]1C(=O)N[C@@H](CC(N)=O)C(=O)N[C@H]2C(=O)N[C@H]3C(=O)N[C@H](C(=O)N[C@H](C(=O)O)c4cc(O)cc(O)c4-c4cc3ccc4O)[C@H](O)c3ccc(c(Cl)c3)Oc3cc2cc(c3O[C@@H]2O[C@H](CO)[C@@H](O)[C@H](O)[C@H]2O[C@H]2C[C@](C)(N)[C@H](O)[C@H](C)O2)Oc2ccc(cc2Cl)[C@H]1O` [Vancomycin, vancomycin], the values for the minimal inhibitory concentration (MIC) in the assay on MRSA [1] (Antibiotics alone), in the assay with MRSA [1] (setting [3]) and against MRSA No. 5 (setting [4]) were 0.98 to 2 µg/mL, 0.49 to 0.98 µg/mL and less than 0.98 µM, respectively. The MIC50 in the assay with MRSA [1] (Antibiotics alone) is 0.98 µg/mL; in the assay on MRSA [1] (setting [3]), 0.49 µg/mL. For the same compound, the “inhibitory effect on resistance of MRSA No.5 (in words)” value with MRSA No. 5 is recorded as “appeared not to be showed”.
